According to patent publication US20100061982A1, “3-SUBSTITUTED-1H-INDOLE, 3-SUBSTITUTED-1H-PYRROLO[2,3-B]PYRIDINE AND 3-SUBSTITUTED-1H-PYRROLO[3,2-B]PYRIDINE COMPOUNDS, THEIR USE AS MTOR KINASE AND PI3 KINASE INHIBITORS, AND THEIR SYNTHESES” (priority 2008, published 2010):
In brackets after ≈: the same amount, converted by molar mass. Where two headings read alike, the source gives them in different places.

Assays:
[1] = PAMPA permeability pH 7.4
[2] = Microsome Stability (15 min), rat; type: in vitro ADME; settings: microsomes, Phase I (NADPH), read-out: Microsome Stability (15 min) T ½ Phase I rat
PI3K alpha = PI3K alpha (Homo sapiens, UniProt P42336); assay: PI3K-alpha Fluorescence Polarization Assay; type: biochemical
Solubility pH 7.4 = settings: pH 7.4, aqueous buffer
[3] = Buffer Stability (37° C.)
[4] = Microsome Stability (15 min), human; type: in vitro ADME; settings: microsomes, Phase I (NADPH), read-out: Microsome Stability (15 min) T ½ Phase I human
[5] = Microsome Stability (15 min), nude mouse; type: in vitro ADME; settings: microsomes, Phase I (NADPH), read-out: Microsome Stability (15 min) T ½ Phase I nude mouse
[6] = Plasma Stability (37° C.), rat
[7] = In vivo blood/plasma and tumor levels of prodrug and metabolites after 50 mg, kg po; settings: 50 mg

Chain of PI3K alpha (P42336 whole entry, species assumed): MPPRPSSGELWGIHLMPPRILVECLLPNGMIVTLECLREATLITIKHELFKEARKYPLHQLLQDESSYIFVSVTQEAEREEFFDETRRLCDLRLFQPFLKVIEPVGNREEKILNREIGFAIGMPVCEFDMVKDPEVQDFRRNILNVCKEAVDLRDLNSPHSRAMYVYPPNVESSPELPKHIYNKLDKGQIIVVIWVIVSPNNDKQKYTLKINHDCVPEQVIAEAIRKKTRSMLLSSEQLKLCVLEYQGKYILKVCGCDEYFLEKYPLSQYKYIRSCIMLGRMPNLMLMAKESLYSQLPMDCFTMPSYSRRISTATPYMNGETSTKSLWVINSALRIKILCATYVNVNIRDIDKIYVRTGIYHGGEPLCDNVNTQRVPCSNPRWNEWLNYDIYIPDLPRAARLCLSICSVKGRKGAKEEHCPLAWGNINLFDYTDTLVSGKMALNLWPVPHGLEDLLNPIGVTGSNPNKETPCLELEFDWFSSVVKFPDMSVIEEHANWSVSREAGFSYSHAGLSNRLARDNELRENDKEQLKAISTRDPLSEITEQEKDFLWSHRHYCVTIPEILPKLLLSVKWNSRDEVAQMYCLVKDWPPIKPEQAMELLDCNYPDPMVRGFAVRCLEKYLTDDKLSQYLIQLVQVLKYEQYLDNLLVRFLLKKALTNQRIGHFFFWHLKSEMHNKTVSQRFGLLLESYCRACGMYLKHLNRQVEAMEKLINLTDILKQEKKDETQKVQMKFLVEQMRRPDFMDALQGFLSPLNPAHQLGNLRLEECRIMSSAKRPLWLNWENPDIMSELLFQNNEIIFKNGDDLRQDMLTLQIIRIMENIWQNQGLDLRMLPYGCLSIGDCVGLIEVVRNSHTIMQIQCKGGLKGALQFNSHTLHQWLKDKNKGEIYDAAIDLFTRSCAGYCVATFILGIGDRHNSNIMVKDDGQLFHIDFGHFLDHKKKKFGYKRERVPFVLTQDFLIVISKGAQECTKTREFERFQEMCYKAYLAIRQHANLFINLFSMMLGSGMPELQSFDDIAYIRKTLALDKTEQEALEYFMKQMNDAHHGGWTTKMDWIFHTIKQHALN
Chain of PI3K alpha (P27986 whole entry partner, species assumed): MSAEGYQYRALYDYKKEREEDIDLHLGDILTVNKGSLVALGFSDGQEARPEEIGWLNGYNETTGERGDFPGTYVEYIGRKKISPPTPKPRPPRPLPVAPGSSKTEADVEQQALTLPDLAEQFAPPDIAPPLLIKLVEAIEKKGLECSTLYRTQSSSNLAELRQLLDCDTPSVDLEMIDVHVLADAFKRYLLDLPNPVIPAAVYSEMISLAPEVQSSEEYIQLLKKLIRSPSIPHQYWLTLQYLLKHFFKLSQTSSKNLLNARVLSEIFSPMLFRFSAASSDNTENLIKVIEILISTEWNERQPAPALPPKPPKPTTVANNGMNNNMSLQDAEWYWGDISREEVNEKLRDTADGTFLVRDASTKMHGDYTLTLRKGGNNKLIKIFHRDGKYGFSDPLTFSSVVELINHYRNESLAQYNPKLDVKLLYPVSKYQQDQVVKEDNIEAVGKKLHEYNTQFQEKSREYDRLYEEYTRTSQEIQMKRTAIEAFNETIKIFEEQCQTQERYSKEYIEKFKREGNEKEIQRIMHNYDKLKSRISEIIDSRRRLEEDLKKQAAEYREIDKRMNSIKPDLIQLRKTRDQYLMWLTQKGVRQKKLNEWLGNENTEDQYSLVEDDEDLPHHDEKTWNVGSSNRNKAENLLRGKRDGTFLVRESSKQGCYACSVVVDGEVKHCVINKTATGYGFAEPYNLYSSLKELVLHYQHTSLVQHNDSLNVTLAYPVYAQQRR

| SMILES | PAMPA Pe [1] | half-life [2] | IC50 (PI3K alpha; read-out: PI3K alpha Mean IC50) | solubility (Solubility pH 7.4) | Buffer Stability (37° C.) % Remaining (at 16-23 hours) SGF [3] | Buffer Stability (37° C.) % Remaining (at 16-23 hours) SIF [3] | Buffer Stability (37° C.) % Remaining (at 16-23 hours) pH 1 [3] | Buffer Stability (37° C.) % Remaining (at 16-23 hours) pH 4.5 [3] | Buffer Stability (37° C.) % Remaining (at 16-23 hours) pH 6.6 [3] | Buffer Stability (37° C.) % Remaining (at 16-23 hours) pH 7.4 [3] | Buffer Stability (37° C.) % Remaining (at 16-23 hours) pH 9 [3] | half-life [4] | half-life [5] | Plasma Stability (37° C.) % Remaining (3-3.5 hours) rat [6] | IC50 (PI3K alpha) | half-life ([5]; nude, mouse) | plasma prodrug concentration ([7]; 0.5 h) | plasma prodrug concentration ([7]; 2 h) | plasma prodrug concentration ([7]; 6 h (third value)) |
| --- | --- | --- | --- | --- | --- | --- | --- | --- | --- | --- | --- | --- | --- | --- | --- | --- | --- | --- | --- |
| Cn1cc(/C=C2\Oc3cc(O)cc(O)c3C2=O)c2c(-c3ccccc3)cccc21 [(2Z)-4,6-dihydroxy-2-[(1-methyl-4-phenyl-1H-indol-3-yl)methylene]-1-benzofuran-3(2H)-one] | 0.04 10e−6 cm/s | 21 min | – | – | – | – | – | – | – | – | – | – | – | – | – | – | – | – | – |
| COc1ccc2[nH]c(-c3ccccc3)c(/C=C3\Oc4cc(OC(=O)c5ccccc5)cc(OC(=O)c5ccccc5)c4C3=O)c2c1 [Example 6, (2Z)-2-[(5-methoxy-2-phenyl-1H-indol-3-yl)methylene]-3-oxo-2,3-dihydro-1-benzofuran-4,6-diyl dibenzoate] | 0.12 10e−6 cm/s | – | 0.472 µM | – | – | – | – | – | – | – | – | – | – | – | – | – | – | – | – |
| COC(=O)Oc1cc(OC(=O)OC)c2c(c1)O/C(=C\c1cn(CCCN(C)C)c3ccc(OC)cc13)C2=O [Example 13, (2Z)-2-({1-[3-(dimethylamino)propyl]-5-methoxy-1H-indol-3-yl}methylene)-3-oxo-2,3-dihydro-1-benzofuran-4,6-diyl dimethyl biscarbonate] | 0.19 10e−6 cm/s | – | 0.313 µM | 43 µg/mL (≈ 82 µM) | – | – | – | – | – | – | – | – | – | – | – | – | – | – | – |
| COc1ccc2c(c1)c(/C=C1\Oc3cc(OC(C)=O)cc(OC(C)=O)c3C1=O)cn2CCCN(C)C [Example 15, (2Z)-2-({1-[3-(dimethylamino)propyl]-5-methoxy-1H-indol-3-yl}methylene)-3-oxo-2,3-dihydro-1-benzofuran-4,6-diyl diacetate] | 0.24 10e−6 cm/s | – | 0.082 µM | 49 µg/mL | – | – | – | – | – | – | – | – | – | – | – | – | – | – | – |
| COc1ccc2c(c1)c(/C=C1\Oc3cc(OC(=O)c4ccccc4)cc(OC(=O)c4ccccc4)c3C1=O)c(C)n2CCN1CCN(C)CC1 [Example 16, (2Z)-2-({5-methoxy-2-methyl-1-[2-(4-methylpiperazin-1-yl)ethyl]-1H-indol-3-yl}methylene)-3-oxo-2,3-dihydro-1-benzofuran-4,6-diyl dibenzoate] | 0 10e−6 cm/s | 10 min | 8.53 µM | – | 99% | 64% | 96% | 73% | 75% | 4% | 0% | > 30 min | – | – | – | – | – | – | – |
| COc1ccc2[nH]c(-c3ccccc3)c(/C=C3\Oc4cc(OC(=O)N(C)C)ccc4C3=O)c2c1 [Example 18, (2Z)-2-[(5-methoxy-2-phenyl-1H-indol-3-yl)methylene]-3-oxo-2,3-dihydro-1-benzofuran-6-yl dimethylcarbamate] | Undetected | 28 min | – | – | 100% | 101% | 99% | 100% | 100% | 100% | 99% | 13 min | > 30 min | 0% | 6.35 µM | – | – | – | – |
| COc1ccc2[nH]c(-c3ccccc3)c(/C=C3\Oc4cc(OC(=O)Oc5ccccc5)ccc4C3=O)c2c1 [Example 19, (2Z)-2-[(5-methoxy-2-phenyl-1H-indol-3-yl)methylene]-3-oxo-2,3-dihydro-1-benzofuran-6-yl phenyl carbonate] | 0 10e−6 cm/s | > 30 min | 0.181 µM | – | 106% | 35% | 104% | 74% | 60% | 54% | 0% | 28 min | – | 10% | – | > 30 min | – | – | – |
| COc1ccc2[nH]c(-c3ccccc3)c(/C=C3\Oc4cc(OC(=O)N(c5ccccc5)c5ccccc5)ccc4C3=O)c2c1 [Example 20, (2Z)-2-[(5-methoxy-2-phenyl-1H-indol-3-yl)methylene]-3-oxo-2,3-dihydro-1-benzofuran-6-yl diphenylcarbamate] | Undetected | > 30 min | > 10 µM | – | 100% | 100% | 100% | 100% | 100% | 100% | 95% | > 30 min | > 30 min | 91% | – | – | – | – | – |
| COc1ccc2c(c1)c(/C=C1\Oc3cc(OC(=O)N(c4ccccc4)c4ccccc4)cc(OC(=O)N(c4ccccc4)c4ccccc4)c3C1=O)cn2CCCN(C)C [Example 21, (2Z)-2-({1-[3-(dimethylamino)propyl]-5-methoxy-1H-indol-3-yl}methylene)-3-oxo-2,3-dihydro-1-benzofuran-4,6-diyl bis(diphenylcarbamate)] | 0 10e−6 cm/s | – | – | – | 99% | 45% | 118% | 103% | 91% | 98% | 87% | – | > 30 min | 107% | > 10 µM | – | – | – | – |
| COC(=O)Oc1cc(OC(=O)OC)c2c(c1)O/C(=C\c1c(-c3ccccc3)[nH]c3ccc(OC)cc13)C2=O [Example 22, (2Z)-2-[(5-methoxy-2-phenyl-1H-indol-3-yl)methylene]-3-oxo-2,3-dihydro-1-benzofuran-4,6-diyl dimethyl biscarbonate] | 0 10e−6 cm/s | – | 0.013 µM | – | 87% | 0% | 80% | 37% | 42% | 0% | 0% | 3 min | – | 0% | – | 4 min | – | – | – |
| COc1ccc2c(c1)c(/C=C1\Oc3cc(OC(=O)c4ccccc4)cc(OC(=O)c4ccccc4)c3C1=O)cn2CCCN(C)C [Example 24, (2Z)-2-({1-[3-(dimethylamino)propyl]-5-methoxy-1H-indol-3-yl}methylene)-3-oxo-2,3-dihydro-1-benzofuran-4,6-diyl dibenzoate] | 0 10e−6 cm/s | 12 min | > 10 µM | – | 104% | 0% | 86% | 71% | 50% | 5% | 0% | 22 min | – | 6% | – | – | – | – | – |
| COc1ccc2c(c1)c(/C=C1\Oc3cc(OC(=O)N(C(C)C)C(C)C)cc(OC(=O)N(C(C)C)C(C)C)c3C1=O)c(C)n2CCN1CCN(C)CC1 [Example 28, (2Z)-2-({5-methoxy-2-methyl-1-[2-(4-methylpiperazin-1-yl)ethyl]-1H-indol-3-yl}methylene)-3-oxo-2,3-dihydro-1-benzofuran-4,6-diyl bis(diisopropylcarbamate)] | 0.05 10e−6 cm/s | – | – | – | – | – | – | – | – | – | – | 8 min | 24 min | – | 9.5 µM | – | 1141, ng, ml | 940, ng, ml | 1106 ng, ml |
| CCOP(=O)(OCC)Oc1cc2c(c(OP(=O)(OCC)OCC)c1)C(=O)/C(=C/c1c(-c3ccccc3)[nH]c3ccc(OC)cc13)O2 [Example 32, tetraethyl (2Z)-2-[(5-methoxy-2-phenyl-1H-indol-3-yl)methylene]-3-oxo-2,3-dihydro-1-benzofuran-4,6-diyl bis(phosphate)] | 0 10e−6 cm/s | 7 min | – | – | – | – | – | – | – | – | – | 2 min | – | – | 11 µM | – | – | – | – |
| CCOP(=O)(OCC)Oc1ccc2c(c1)O/C(=C\c1c(-c3ccccc3)[nH]c3ccc(OC)cc13)C2=O [Example 34, diethyl (2Z)-2-[(5-methoxy-2-phenyl-1H-indol-3-yl)methylene]-3-oxo-2,3-dihydro-1-benzofuran-6-yl phosphate] | 0 10e−6 cm/s | 17 min | – | – | – | – | – | – | – | – | – | 26 min | > 30 min | – | 5.67 µM | – | 6 ng, ml | 2 ng, ml | bql |
